# From patent US20180228743A1, “COMPOUNDS AND METHODS OF PROMOTING MYELINATION” (Case Western Reserve University, priority 2016, published 2018)
# Values joined by “and” are separate entries in the source; they are usually repeats but may differ in a detail not shown here. Equal values may be shown once. Where a name gives a salt, the structure may show the parent alone. Read-outs that look alike come from different tables or passages of the source.
# Tests used:
# [1] = biological target: T1, rat CYP51 (Rattus norvegicus, UniProt Q64654); assay: CYP51 enzymatic assay (LC/MS quantitation of FF-MAS); assay type: biochemical; details: lanosterol 50 μM, 30 minutes; read-out: IC50 for inhibition of rodent CYP51 in vitro
# T1 construct: purchased Cypex, Inc
# T1 sequence (Q64654 1-503): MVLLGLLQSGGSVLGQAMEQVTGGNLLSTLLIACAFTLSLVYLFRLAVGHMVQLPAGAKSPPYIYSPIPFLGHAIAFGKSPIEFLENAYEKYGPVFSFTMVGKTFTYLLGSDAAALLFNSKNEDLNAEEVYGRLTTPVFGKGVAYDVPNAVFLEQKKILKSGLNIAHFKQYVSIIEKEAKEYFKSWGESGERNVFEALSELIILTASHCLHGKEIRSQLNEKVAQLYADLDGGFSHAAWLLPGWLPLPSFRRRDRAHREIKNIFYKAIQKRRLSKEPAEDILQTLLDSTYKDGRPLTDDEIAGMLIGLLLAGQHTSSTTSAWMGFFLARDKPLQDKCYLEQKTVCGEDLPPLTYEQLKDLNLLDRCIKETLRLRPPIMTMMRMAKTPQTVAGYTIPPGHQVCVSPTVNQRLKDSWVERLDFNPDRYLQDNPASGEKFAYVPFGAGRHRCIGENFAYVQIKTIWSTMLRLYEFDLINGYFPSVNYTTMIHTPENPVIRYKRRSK
# Description: Finally, 15 μl of each reaction/isopropanol mixture was injected onto a SCIEX Triple Quad 6500 LC-MS/MS system using an APCI ion source in positive ion mode with a Shimadzu UFLC-20AD HPLC and a Phenomenex
# [2] = system: EpiSC-derived OPCs; assay: High-throughput screening of 3,000 bioactive small molecules for MBP+ oligodendrocyte formation from OPCs; assay type: cell-based, mouse; details: 2 μM, 72 h; for fold induction at 2 µM: Mus musculus, relative to DMSO controls of the same plate, read-out: fold-change in % MBP + oligodendrocytes; for % 0ligos: MBP+ oligodendrocytes
# Description: Plates were imaged on the Operetta High Content Imaging and Analysis system (PerkinElmer) and a set of 6 fields captured from each well resulting in an average of 1200 cells being scored per well. Analysis (PerkinElmer Harmony and Columbus software) began by identifying intact nuclei stained by DAPI; that is, those traced nuclei that were larger than 300 μm^2 in surface area. Each traced nucleus region was then expanded by 50% and cross-referenced with the […] (MBP) stain to identify oligodendrocyte nuclei, and from this the percentage of oligodendrocytes was calculated. In some experiments, the total process length of MBP+ oligodendrocytes was calculated as previously described.
# EpiSC-derived OPCs were grown and expanded in poly-ornithine and laminin-coated flasks before harvesting for plating. Cells were dispensed in differentiation media supplemented with Noggin (R&D Systems; 100 ng/ml), Neurotrophin 3 (R&D Systems; 10 ng/ml), cAMP (Sigma; 50 μM), and IGF-1 (R&D Systems; 100 ng/ml)) using a Biotek EL406 Microplate Washer Dispenser (Biotek) equipped with 5 μL dispense cassette (Biotek), into poly-D-lysine/laminin (Sigma, L2020; 4 μg/ml)-coated sterile, 384-well, CellCarrier ultra plates (PerkinElmer), to a final density of 12,500 cells per well and allowed to attach for 45 min before addition of drug. A 3 mM stock of bioactive compound library in dimethylsulphoxide (DMSO) were prepared in an Abgene storage 384-well plate (ThermoFisher Scientific; AB1055). These were added to assay plates using a 50 nL solid pin tool attached to Janus automated workstation (Perkin Elmer), resulting in a final screening concentration of 2 μM. Cells were incubated at 37° C. for 1 hour and then T3 (Sigma; 40 ng/ml) was added to all wells except negative controls, to which FGF (20 ng/ml) was added instead. Negative controls and T3-alone were included in each assay plate. After incubation at 37° C. for 72 h, cells were fixed, washed and stained similar to 96-well OPC assay protocol, although all the washing steps were performed using a Biotek EL406 Microplate Washer Dispenser (Biotek) equipped with a 96-well aspiration manifold. Cells were stained with DAPI (Sigma; 1 μg/ml) and MBP antibody (Abcam, ab7349; 1:100). Plates were imaged on the Operetta High Content Imaging and Analysis system (PerkinElmer) and a set of 4 fields captured from each well resulting in an average of 700 cells being scored per well. Analysis was performed as in High-Content Imaging and Analysis, above. All plates for the primary screen were processed and analyzed simultaneously to minimize variability. Molecules causing more than 20% reduction in nuclear count relative to DMSO control wells were removed from consideration, and hits were called on the basis of largest fold-increase in percentage of MBP+ oligodendrocytes relative to DMSO controls within the same plate.
# [3] = biological target: T2, EBP (Mus musculus, UniProt P70245); assay: EBP enzymatic assay (GC/MS); assay type: biochemical; details: 10 μM, zymostenol 25 μM
# T2 construct: active EBP was obtained from mouse microsomes; from tissue
# T2 sequence (P70245 1-230): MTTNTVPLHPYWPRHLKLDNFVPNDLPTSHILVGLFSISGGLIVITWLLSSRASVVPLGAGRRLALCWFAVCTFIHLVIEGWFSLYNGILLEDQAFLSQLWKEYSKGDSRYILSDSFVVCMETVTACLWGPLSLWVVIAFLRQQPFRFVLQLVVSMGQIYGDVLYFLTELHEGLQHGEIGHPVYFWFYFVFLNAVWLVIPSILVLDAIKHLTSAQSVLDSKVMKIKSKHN
# [4] = system: EpiSC-derived OPCs; assay: In vitro phenotypic screening of OPCs (MBP+ oligodendrocytes at 72 h); assay type: cell-based, mouse; details: for oligodendrocyte formation in combination with ketoconazole: ketoconazole 2.5 μM (maximally effective dose)
# [5] = system: OPCs; assay: GC/MS-based sterol profiling in OPCs; assay type: cell-based, mouse; details: for sterol levels / sterol intermediate accumulation in OPCs: 24 h treatment (siRNA 96 h)
# [6] = system: EpiSC-derived OPCs; assay: Oligodendrocyte formation on electrospun microfibers; assay type: cell-based, mouse; details: 14 days
# Description: A 12-well plate containing Mimetex aligned scaffold (microfiber plate, AMSBIO, AMS.TECL-006-1X, Electrospun poly-L-lactide Scaffold, […] cell crown inserts) was prepared as previously described. Briefly, inserts were sterilized with 70% ethanol and washed with PBS before being coated with polyornithine and laminin. After laminin coating, 100,000 cells/mL of EpiSC-derived OPCs were plated in differentiation medium. After 24 h the media was replaced with fresh media containing small molecule treatments. Every 48 h the media was replaced with fresh compound containing media for a total of 14 days. Plates were fixed with 4% PFA, permeabilized with 0.1% Triton X-100, and blocked with 10% donkey serum (v/v) in PBS for 60 min. Plates were stained for MBP (Abcam, ab7349; 1:100) and DAPI staining (Sigma; 5 μg/ml). After staining, the inserts were moved into new 12-well plate and covered with 2 mL of PBS before imaging in Operetta high content Imaging and analysis system. […] Analysis (PerkinElmer Harmony and Columbus software) identified intact nuclei stained by DAPI and calculated the MBP signal intensity per cell per well. Microfiber insert tracking images were taken using a Leica DMi8 with a 20× Dry/NA 0.40 objective. Microfiber plate inserts were mounted using Flouromount-G (SouthernBiotech) and allowed to partially harden before coverslips were added and the insert ring was removed. Confocal images were obtained on a Leica SP8 confocal scanning microscope, with 40× oil/NA 1.30 objective. Confocal stacks of 0.336 μm z-steps were taken at 1024×1024. Each fluorophore was excited sequentially and all contrast and brightness changes were applied consistently between images.
# [7] = system: human glioma cells (GBM528); assay: GC/MS sterol profiling in human glioma cell line; assay type: cell-based; details: 24 h
# [8] = mouse; cited from earlier work
# [9] = system: human induced pluripotent stem cell-derived cortical spheroids; assay: GC/MS sterol profiling in human cortical spheroids; assay type: cell-based; details: 2 μM, 24 h
# [10] = system: LPC-lesioned spinal cord; assay: LPC focal demyelination of spinal cord, remyelination histology; assay type: in vivo, mouse; details: ifenprodil 10 mg per kg, tamoxifen 2 mg per kg, daily intraperitoneal, 8 days from day 4 after lesion
# [11] = system: mouse brain; assay: Analysis of mouse brain sterol levels (GC/MS); assay type: in vivo; details: miconazole 10 mg per kg, ifenprodil 10 mg per kg, tamoxifen 2 mg per kg; 3 days intraperitoneal dosing
# Description: Mice were anaesthetized with isoflurane and perfused with phosphate buffered saline to remove blood from the brain. Brains were collected and flash frozen using liquid nitrogen. The samples were pulverized and 50-100 milligrams of tissue were collected for further processing. A modified Folch protocol was used for extraction of sterols. Briefly, samples were resuspended in a 2:1 chloroform/methanol mixture and homogenized. Cell debris was removed by centrifugation at 4000 g for 10 min. The solution was dried under air and resuspended in hexane with a cholesterol-D7 standard and dried again. Lipids were derivatized with 70 al of bis(trimethylsilyl)trifluoroacetamide; 2 μls were injected and analyzed by GC/MS as described above.
# [12] = system: T47D cells; details: 5 days
compound,measurement,setting,value
Clc1ccccc1C(c1ccccc1)(c1ccccc1)n1ccnc1 [Clotrimazole],IC50,[1],300 to 700 nM
same,cell viability (% relative to DMS0),[2],112.83% and 122.50%
same,fold induction at 2 µM,[2],3.85
Cc1cc(C)c(CNC(=O)c2cc(-c3ccc(CN4CCOCC4)cc3)cc3c2cnn3C2CCCC2)c(=O)[nH]1 [EPZ005687],inhibition of EBP enzymatic activity,[3],directly inhibiting EBP enzymatic activity
same,formation of MBP+ oligodendrocytes from OPCs,[4]; 72 h,enhanced oligodendrocyte formation in both our mouse epiblast stem cell-derived OPCs and mouse primary OPCs
same,sterol levels / sterol intermediate accumulation in OPCs,[5],uniquely caused accumulation of zymosterol and zymostenol in OPCs
same,cell viability (% relative to DMS0),[2],91.36%
same,% 0ligos,[2],50.00%
same,fold induction at 2 µM,[2],5.9
OCCOCCN1CCN(C(c2ccccc2)c2ccc(Cl)cc2)CC1 (stereo not shown) [Hydroxyzine 2HCl],inhibition of EBP enzymatic activity,[3],directly inhibiting EBP enzymatic activity
same,cell viability (% relative to DMS0),[2],134.19%
same,% 0ligos,[2],40.63%
same,fold induction at 2 µM,[2],4.8
CC(=O)N1CCN(c2ccc(OCC3COC(Cn4ccnc4)(c4ccc(Cl)cc4Cl)O3)cc2)CC1 (stereo not shown) [Ketoconazole],IC50,[1],300 to 700 nM
same,MBP+ oligodendrocyte tracking along and wrapping of microfibers,[6],significantly enhanced MBP+ oligodendrocyte tracking along and wrapping of the microfibers
same,% 0ligos,[2],52.77%
COc1ccc(S(=O)(=O)N2CCC(N3CCC(C)CC3)CC2)cc1 [TASIN-1],MBP+ oligodendrocyte tracking along and wrapping of microfibers,[6],significantly enhanced MBP+ oligodendrocyte tracking along and wrapping of the microfibers
same,inhibition of EBP enzymatic activity,[3],clear inhibition
same,formation of MBP+ oligodendrocytes from OPCs,[4]; 72 h,enhanced formation of MBP+ oligodendrocytes
"CCC(C)(C)c1ccc(CC(C)CN2C[C@@H](C)O[C@@H](C)C2)cc1 (stereo partly shown) [amorolfine, Amorolfine]",MBP+ oligodendrocyte tracking along and wrapping of microfibers,[6],significantly enhanced MBP+ oligodendrocyte tracking along and wrapping of the microfibers
same,formation of MBP+ oligodendrocytes from OPCs,[4]; 72 h,enhanced formation of MBP+ oligodendrocytes
"CN1[C@@H]2CC[C@H]1C[C@@H](OC(c1ccccc1)c1ccccc1)C2 [benztropine, Benztropine]",inhibition of EBP enzymatic activity,[3],clear inhibition
same,oligodendrocyte formation in combination with ketoconazole,[4]; 72 h,did not enhance differentiation above levels seen for ketoconazole alone
same,sterol levels / sterol intermediate accumulation in OPCs,[5],induced accumulation of zymostenol and zymosterol and decreased basal sterol levels
CC(C(O)c1ccc(O)cc1)N1CCC(Cc2ccccc2)CC1 (stereo not shown) [lfenprodil Tartrate],sterol intermediate accumulation in human glioma cell line,[7],caused accumulation of the expected sterol intermediates
same,blood brain barrier penetration,[8],known to cross the mouse blood brain barrier
same,"8,9-unsaturated sterol accumulation in human cortical spheroids",[9],"led to 8,9-unsaturated sterol accumulation"
same,remyelination of LPC lesion,[10],remyelination was widespread throughout the lesion
same,cell viability (% relative to DMS0),[2],103.79%
same,cell viability (% relative to DMS0),[2]; listed as lfenprodil tartrate,106.02%
same,fold induction at 2 µM,[2],4.89
same,"accumulation of 8,9-unsaturated sterols in brain",[11],"induced significant accumulation of 8,9-unsaturated sterols in the brain"
"Clc1ccc(COC(Cn2ccnc2)c2ccc(Cl)cc2Cl)c(Cl)c1 (stereo not shown) [miconazole, Miconazole]",sterol intermediate accumulation in human glioma cell line,[7],caused accumulation of the expected sterol intermediates
same,IC50,[1],300 to 700 nM
same,"8,9-unsaturated sterol accumulation in human cortical spheroids",[9],"led to 8,9-unsaturated sterol accumulation"
"OCCOc1ccc(/C(=C(/CCCl)c2ccccc2)c2ccccc2)cc1 [ospemifene, Ospemifene]",antiestrogen effect on estrogen-dependent growth,[12],comparable antiestrogen effects
same,formation of MBP+ oligodendrocytes from OPCs,[4],did not enhance differentiation to MBP+ oligodendrocytes
same,enzyme inhibited in OPCs as indicated by sterol profile,[5],did not inhibit EBP in OPCs
"CC/C(=C(\c1ccccc1)c1ccc(OCCN(C)C)cc1)c1ccccc1 [tamoxifen, Tamoxifen]",sterol intermediate accumulation in human glioma cell line,[7],caused accumulation of the expected sterol intermediates
same,inhibition of EBP enzymatic activity,[3],clear inhibition
same,oligodendrocyte formation in combination with ketoconazole,[4]; 72 h,did not enhance differentiation above levels seen for ketoconazole alone
same,sterol levels / sterol intermediate accumulation in OPCs,[5],induced accumulation of zymostenol and zymosterol and decreased basal sterol levels
same,remyelination of LPC lesion,[10],remyelination was widespread throughout the lesion
"CN(C)CCOc1ccc(/C(=C(/CCCl)c2ccccc2)c2ccccc2)cc1 [toremifene, Toremifene]",antiestrogen effect on estrogen-dependent growth,[12],comparable antiestrogen effects
same,formation of MBP+ oligodendrocytes from OPCs,[4]; 72 h,enhanced MBP+ oligodendrocyte generation over a wide dose range
same,enzyme inhibited in OPCs as indicated by sterol profile,[5]; 24 h,inhibited EBP
